Measurements reported in US6720423B2, “Dihydrobenzofuran and dihydrobenzothiophene 2,4-pentadienoic acid derivatives having selective activity for retinoid X (RXR) receptors” (Allergan, Inc., priority 2002, dated 2004).

Legend:
RXRγ = molecular target: T1, RXRγ (UniProt P28705); assay: receptor transactivation assay, RXRγ; type: cell-based; design: RXR Trans; other: RXRγ; first entry of cell; conditions: for EC50: first entry of cell, read-out: RXR Trans. EC50 (nM) γ; for RXR Trans. γ, number in parentheses after EC50: parenthesised number, not defined in the patent
T1 sequence (P28705 1-463): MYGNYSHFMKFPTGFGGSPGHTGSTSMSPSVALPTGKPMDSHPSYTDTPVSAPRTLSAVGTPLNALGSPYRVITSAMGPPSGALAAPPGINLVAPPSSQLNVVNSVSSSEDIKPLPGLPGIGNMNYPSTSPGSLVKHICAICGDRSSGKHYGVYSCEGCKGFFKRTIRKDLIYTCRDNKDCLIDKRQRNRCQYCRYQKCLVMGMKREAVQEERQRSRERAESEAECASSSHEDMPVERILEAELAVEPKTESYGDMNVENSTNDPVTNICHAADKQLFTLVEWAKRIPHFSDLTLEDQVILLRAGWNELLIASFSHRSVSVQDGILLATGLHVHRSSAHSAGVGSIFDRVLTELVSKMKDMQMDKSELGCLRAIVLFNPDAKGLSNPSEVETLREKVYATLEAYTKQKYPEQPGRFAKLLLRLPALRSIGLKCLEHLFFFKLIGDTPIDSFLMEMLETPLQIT
Description: (§1) A holoreceptor transactivation assay and a ligand binding assay which measure the antagonist/agonist like activity of the compounds of the invention, or their ability to bind to the several retinoid receptor subtypes, respectively, are described in published PCT Application No. WO WO93/11755 (particularly on pages 30-33 and 37-41) published on Jun. 24, 1993, the specification of which is also incorporated herein by reference. A detailed experimental procedure for holoreceptor transactivations has been described by Heyman et al. Cell 68, 397-406, (1992); Allegretto et al. J. Biol. Chem. 268, 26625-26633, and Mangelsdorf et al. The Retinoids: Biology, Chemistry and Medicine, pp 319-349, Raven Press Ltd., New York, which are expressly incorporated herein by reference. The results obtained in this assay are expressed in EC50 numbers, as they are also in the chimeric receptor transactivation assay. The results of ligand binding assay are expressed in Kd numbers. (See Cheng et al. Biochemical Pharmacology Vol. 22 pp 3099-3108, expressly incorporated herein by reference.)

RARα = molecular target: T2, RARα (Homo sapiens, UniProt P10276); assay: ligand binding assay, RARα; conditions: second entry of cell, read-out: RAR Bind. Ki (nM) α
T2 sequence (P10276 1-462): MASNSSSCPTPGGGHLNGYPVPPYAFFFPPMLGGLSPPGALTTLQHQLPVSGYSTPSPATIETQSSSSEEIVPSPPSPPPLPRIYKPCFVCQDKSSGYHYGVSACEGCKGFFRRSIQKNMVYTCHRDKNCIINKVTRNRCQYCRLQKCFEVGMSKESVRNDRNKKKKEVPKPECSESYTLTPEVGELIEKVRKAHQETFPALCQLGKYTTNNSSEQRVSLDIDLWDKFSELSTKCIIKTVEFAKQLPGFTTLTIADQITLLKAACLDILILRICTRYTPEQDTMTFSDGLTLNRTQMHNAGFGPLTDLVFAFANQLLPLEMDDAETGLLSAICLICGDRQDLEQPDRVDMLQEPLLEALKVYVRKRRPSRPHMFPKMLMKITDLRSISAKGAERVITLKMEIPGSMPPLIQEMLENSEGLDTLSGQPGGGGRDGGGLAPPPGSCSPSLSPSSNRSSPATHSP
Description: as §1

RARγ = molecular target: T3, RARγ (Homo sapiens, UniProt P13631); assay: ligand binding assay, RARγ; conditions: second entry of cell, read-out: RAR Bind. Ki (nM) γ
T3 sequence (P13631 1-454): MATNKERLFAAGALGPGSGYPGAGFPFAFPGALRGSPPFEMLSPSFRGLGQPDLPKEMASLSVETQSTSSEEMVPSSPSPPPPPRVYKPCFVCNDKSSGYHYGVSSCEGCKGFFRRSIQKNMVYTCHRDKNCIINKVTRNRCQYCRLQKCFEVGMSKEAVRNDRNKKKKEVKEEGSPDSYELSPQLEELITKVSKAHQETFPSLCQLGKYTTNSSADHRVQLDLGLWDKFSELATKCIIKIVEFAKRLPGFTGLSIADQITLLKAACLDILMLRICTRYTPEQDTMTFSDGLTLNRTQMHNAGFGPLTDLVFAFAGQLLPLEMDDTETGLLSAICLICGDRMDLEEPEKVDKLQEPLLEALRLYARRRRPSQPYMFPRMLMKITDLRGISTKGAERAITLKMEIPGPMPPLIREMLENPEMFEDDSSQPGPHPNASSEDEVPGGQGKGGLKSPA
Description: as §1

| Structure (SMILES) | EC50 (RXRγ) [nM] | RXR Trans. γ, number in parentheses after EC50 (RXRγ) | Ki (RARα) [nM] | Ki (RARγ) [nM] |
| --- | --- | --- | --- | --- |
| CC(/C=C/[C@@H]1C[C@]1(C)c1cc(-c2ccccc2C)c2c(c1)C(C)(C)CO2)=C\C(=O)O [Compound 26, 5-[(1S,2S)-2-(3,3-Dimethyl-7-o-tolyl-2,3-dihydro-benzofuran-5-yl)-2-methyl-cyclopropyl]-3-methyl-penta-2E,4E-dienoic acid] | 0.32 | 107 | > 10000 | > 10000 |
| CC(/C=C/[C@@H]1C[C@]1(C)c1cc(C(C)(C)C)c2c(c1)C(C)(C)CO2)=C\C(=O)O [Compound 10, (6S,7S)-7-[5-(3,3-Dimethyl-7-t-butyl-2,3-dihydro-benzofuranyl)]-6,7-methano-3-methyl-octa-2E,4E-dienoic acid] | 0.78 | 95 | 11000 | 13000 |
